Converted amounts (≈) assume the structure as drawn.

Conditions in one data set: not given
`CC(C)c1ccc(NC(=O)CN(CC(=O)O)CC(=O)O)cc1Br`: the logP was -0.08.
Regarding `O=C(OCn1ncc2c(=O)[nH]cnc21)c1cccnc1`, the logP is 0.27.
Still for that read-out and setting: in the case of `CCCCC(OC(Cc1ccccc1)C(=O)N1CCC(OCOC)CC1)C(=O)NC(CC1CCCCC1)C(O)CC(C(=O)NCCNc1n[nH]c(N)n1)C(C)C` (stereo not given) it was 4.
The same measure, in the same setting: in the case of `NC(=O)c1cccc2ccccc12` it was 1.88.
Turning to `Cc1ccc(CN)cc1`, the log partition coefficient (logP) was 1.46.
Still for that read-out and setting: the value for `CC(C)(C)C1CCCCC1` was 5.04; that for `OC[C@@H]1C[C@H](F)[C@H](n2cnc3cncnc32)O1` was -0.4.
On the same count and under the same terms, the value for `COc1ccc(C(=O)CS(=O)(=O)c2ccc(C)cc2)cc1` was 2.47.
Same read-out and setting: in the case of `c1ccc2c(c1)ccc1cc3ccc4ccccc4c3nc12` it was 6.45; in that of `NS(=O)(=O)c1cc2cc(CN3CCOCC3)sc2o1`, 0.88.
In turn, `Clc1cc(Cl)c(Oc2ccccc2)cc1Cl` displayed a logP of 5.44.
Still for that read-out and setting: the value for `CC1CCCC(C)C1O` (stereo not given) was 2.1; that for `Clc1cc(Cl)c2[nH]c3c(Cl)cc(Cl)cc3c2c1` was 5.75.
On the same count and under the same terms, the value for `OC(Cn1cncn1)(c1ccc(F)cc1)c1ccccc1F` (stereo not given) was 2.29.
On the same count and under the same terms, the value for `O=C1c2ccccc2C(=O)c2c(O)cccc21` was 3.52; that for `COc1ccc(-c2cc(C#N)c(Cl)nc2C)cc1` was 3.38.
The molecule `CC1(C)[C@H](/C=C(\Cl)C(F)(F)F)[C@@H]1C(=O)O[C@H](C#N)c1cccc(Oc2ccccc2)c1` had a solubility of 1.11e-05 mM (≈ 0.005 µg/mL).
`CC(C)(O)C(=O)Nc1ccc([N+](=O)[O-])cc1`: the logP was 1.61.
Still for that read-out and setting: in the case of `Nc1ccc2nc(S(N)(=O)=O)sc2c1` it was 0.52; in that of `NS(=O)(=O)c1nn2c(=Nc3ccccc3)snc2s1`, 2.57.
Molecule `COC(=O)CCC(=O)OC` came in with a solubility of 171 mM (≈ 25000 µg/mL).
In turn, `c1ccc2c(c1)ccc1cc3ccc4ccccc4c3cc12` had a logP of 6.54.
On the same count and under the same terms, in the case of `ClC(Cl)(Cl)c1nc(NCc2ccccc2)nc(C(Cl)(Cl)Cl)n1` it was 4.93.
`Cc1c(Cl)ccc(Cc2ccc(Cl)cc2Cl)c1Cl` showed a logP of 7.2.
The same measure, in the same setting: in the case of `COC(=O)C1CCN1CC(O)Cn1ccnc1` (stereo not given) it was -0.29; in that of `CCC(C)n1ncn(-c2ccc(N3CCN(c4ccc(OC[C@H]5CO[C@](Cn6cncn6)(c6ccc(Cl)cc6Cl)O5)cc4)CC3)cc2)c1=O` (stereo not given in full), 5.66.
For `COc1cccc(N=C=S)c1`, the logP is 3.68.
The same measure, in the same setting: the value for `N=C(N)NN=C1C=CC(=NNC(N)=O)C=C1` was 1.56; that for `C=CC(=O)NCCN(C)C` was -0.25.
The same measure, in the same setting: the value for `CCC1(C2=CCCCCC2)C(=O)NC(=O)N(C)C1=O` (stereo not given) was 2.82; that for `Cc1ccccc1OCCNc1ccccc1C(N)=O` was 2.94; that for `CC(C)C1(C)N=C(c2nc3ccccc3cc2C(=O)O)NC1=O` (stereo not given) was 1.86.
`CN1CCCC1=O` gave a logP of -0.38.
On to `CCCCCCCCCCCCN1CC(C(=O)OC)CC1=O` (stereo not given), for which the logP was determined as 4.
The same measure, in the same setting: in the case of `O=[N+]([O-])c1ccc2nc[nH]c2c1` it was 1.5; in that of `CCCCCCCCC(C)=O`, 3.73.
The molecule `CC(O)CNc1ccccc1C(N)=O` (stereo not given) gave a logP of 0.62.
The same measure, in the same setting: in the case of `Clc1ccc(C2OC2c2ccccc2)cc1` (stereo not given) it was 4.54.
On to `COC(=O)[C@@H](N)Cc1ccc(O)c(O)c1`, for which the logP was -0.21.
Still for that read-out and setting: in the case of `CCCCCCOC(=O)c1cccnc1` it was 3.51; in that of `C=Cc1cc(C)ccc1C`, 4.16; in that of `Cc1cc(OCCN(C)C)c(C(C)C)cc1O`, 2.93.
Molecule `COCOCCn1cnc2c(=N)n(C)c(=O)[nH]c21` showed a logP of -1.52.
The molecule `COc1ccc2cc(CCC(C)=O)ccc2c1` registered a logP of 3.08.
Consider `CC(C)=NNc1ccc([N+](=O)[O-])cc1[N+](=O)[O-]`, for which the logP is 3.05.
On the same count and under the same terms, the value for `CC(C)C(=O)Nc1ccc([N+](=O)[O-])c(C(F)(F)F)c1` was 3.35.
On the same count and under the same terms, the value for `Clc1ccc(Cl)nn1` was 0.7; that for `COc1cccc(OCCN(C)C)c1` was 1.69.
The same measure, in the same setting: in the case of `Sc1nc2ccccc2s1` it was 2.42; in that of `CCOC1OC2OC3(C)CC(O)C4C(C)CCC(C1C)C24OO3` (stereo not given), 2.7; in that of `COc1ccc(Oc2ccc(NC(=O)N(C)C)cc2)cc1`, 2.54.
Consider `CC1=CCC(=C(C)C)CC1`, for which the logP amounted to 4.47.
`CC(C)(C)C(=O)OCn1ncc2c(O)ncnc21` showed a logP of 1.07.
The same measure, in the same setting: the value for `Cc1cn([C@H]2CC[C@@H](CO)O2)c(=O)[nH]c1=S` was 0.44; that for `c1ccc2c(c1)ccc1nc3c(ccc4ccccc43)cc12` was 5.73; that for `Oc1ccc2c(c1)OCC1c3cc4c(cc3OC21)OCO4` (stereo not given) was 2.61.
With `O=CC=Cc1ccc([N+](=O)[O-])o1`, the logP stood at 0.96.
On the same count and under the same terms, the value for `CC(=NN=C(N)N)c1cccs1` was 1.05.
On the same count and under the same terms, the value for `C[Si]1(C)O[Si](C)(C)O[Si](C)(C)O[Si](C)(C)O[Si](C)(C)O[Si](C)(C)O1` was 9.06.
`BrCBr` returned a logP of 1.7.
Same read-out and setting: the value for `Brc1ccc(-c2ccccc2)cc1` was 4.96; that for `CCNc1nc(NC(C)(C)C)nc(OC)n1` was 3.1.

Staying with this data set, now noted: 20 °C.
Take `CN(C)c1ccc(C(=O)c2ccc(N(C)C)cc2)cc1`: the solubility is 1.49 mM (≈ 400 µg/mL).
Regarding `CCOC(C)(C)C`, the solubility came out at 117 mM (≈ 12000 µg/mL).
Same read-out and setting: the value for `CC(O)CN(CC(C)O)CC(C)O` (stereo not given) was 4340 mM (≈ 830000 µg/mL); that for `CCC#CC(C)O` (stereo not given) was 387 mM (≈ 38000 µg/mL).

The same data set, now with this note: 22 °C.
Turning to `CCOC(=O)CC(SP(=O)(OC)OC)C(=O)OCC` (stereo not given), the solubility is 23.9 mM (≈ 7500 µg/mL).

The same data set, now with this note: 22.0 °C.
`CCCCCCl` registered a log10 OH rate constant (cm³/molecule/s) of -11.5.

Still in this data set, the particulars now being: 23 °C.
As to `CCOP(=S)(Oc1ccc([N+](=O)[O-])cc1)c1ccccc1` (stereo not given), the solubility stood at 0.00962 mM (≈ 3.11 µg/mL).
Still for that read-out and setting: in the case of `CC1=CCC(=C(C)C)CC1` it was 0.0697 mM (≈ 9.5 µg/mL); in that of `C[Si]1(C)O[Si](C)(C)O[Si](C)(C)O[Si](C)(C)O[Si](C)(C)O[Si](C)(C)O1`, 1.15e-05 mM (≈ 0.0051 µg/mL).

Staying with this data set, now noted: 24 °C.
On to `O=NN1CCCCCC1`, for which the solubility was found to be 99.9 mM (≈ 12800 µg/mL).
The molecule `Sc1nc2ccccc2s1` gave a solubility of 0.658 mM (≈ 110 µg/mL).

The same data set, now with this note: 24.0 °C.
Take `Clc1cccc2c1Oc1ccccc1O2`: the log10 OH rate constant (cm³/molecule/s) was -11.3.

Staying with this data set, now noted: 25 °C.
As for `O=C1C2(Cl)C3(Cl)C4(Cl)C(Cl)(Cl)C5(Cl)C3(Cl)C1(Cl)C5(Cl)C24Cl` (stereo not given), the solubility is 0.0055 mM (≈ 2.7 µg/mL).
The same measure, in the same setting: the value for `CCCCCCCCCCCCCC` was 1.97e-05 mM (≈ 0.00391 µg/mL); that for `Cc1ccc(CO)cc1` was 63.1 mM (≈ 7710 µg/mL).
Same read-out and setting: in the case of `CC=CC#N` it was 373 mM (≈ 25000 µg/mL); in that of `O=C1c2ccccc2C(=O)c2c(O)cccc21`, 0.0379 mM (≈ 8.5 µg/mL).
Consider `Clc1cccc(Cl)c1Cl`, for which the solubility came to 0.0992 mM (≈ 18 µg/mL).
On the same count and under the same terms, the value for `c1ccc2c(c1)ccc1cc3ccc4ccccc4c3cc12` was 3.7e-06 mM (≈ 0.00103 µg/mL); that for `Nc1cc(Cl)cc(C(=O)O)c1Cl` was 3.4 mM (≈ 700 µg/mL); that for `c1ccc2c(c1)ccc1ccc3ccccc3c12` was 1.51e-05 mM (≈ 0.00345 µg/mL).
On to `CCOC(C)=O`, for which the solubility was 908 mM (≈ 80000 µg/mL).
Still for that read-out and setting: the value for `CNC(=O)Oc1cc(C)cc(C(C)C)c1` was 0.439 mM (≈ 91 µg/mL).

The data set is the same for the next values; noted with them: 25.0 °C.
As for `FC(F)OC(F)C(F)(F)F` (stereo not given), the log10 OH rate constant (cm³/molecule/s) is -14.4.
On the same count and under the same terms, in the case of `C=CC1(C)CCC(O)O1` (stereo not given) it was -10.1; in that of `COC(=O)CCC(=O)OC`, -11.9.
The same measure, in the same setting: the value for `O=CC(F)(F)Cl` was -12.1.
Still for that read-out and setting: in the case of `O=CCCl` it was -11.5; in that of `CCCC(C)=O`, -11.3; in that of `CC(C)(C)Cl`, -12.4.
As for `CC1=CCC(=C(C)C)CC1`, the log10 OH rate constant (cm³/molecule/s) is -9.65.
The same measure, in the same setting: the value for `BrCBr` was -12.9.

Still in this data set, the particulars now being: 30 °C.
As for `BrCBr`, the solubility was found to be 68.5 mM (≈ 11900 µg/mL).

A word on the logP: it is the decadic logarithm of the partition coefficient of the neutral form, usually between octanol and water. Higher therefore signals a more lipophilic compound. What is called solubility is how much of the substance goes into solution per volume.

These data come from the OPERA property sets (Mansouri et al. 2018).
